Results from US12410152B2, “Oxazole and thioazole-type cullin ring ubiquitin ligase compounds and uses thereof” (Proxygen GmbH, priority 2019, dated 2025).

Test system: KBM7 WT cells (global proteome)
Assay: Quantitative expression proteomics (TMT isobaric tagging), drug vs DMSO
Assay type: cell-based, human
Source text: The mechanism by which the assayed molecules re-program a functional CRL4B complex based on the data shown could be that drug binding to CUL4B recruits a neo-substrate directly to the cullin backbone. Alternatively, drug binding could stabilize CUL4B function to boost time intervals where a functionally competent CUL4B complexes can be formed. Here, the word “functional” implies that the CUL4B backbone of this complex needs to be neddylated, and a CUL4B associated E2 ubiquitin-conjugating enzyme (UBE2G1) needs to be bound. FIG. 9 outlines one possible mechanism. Both predicted mechanisms of action would result in a functionally altered CRL4B complex, and thus an altered stability of drug-induced (neo-) substrates. In order to identify target proteins with a decreased abundance or, in other words, target proteins that become degraded by CRL4B after drug treatment, global proteome composition was measured using quantitative expression proteomics (TMT-labeling). In brief, KBM7 cells were drug treated for 12 hours, lysed, and subjected to isobaric tagging. Ensuing proteomics analysis quantified a total of 7,903 proteins at a minimum spectral count of 2. […] Data on essentiality are taken from Hart et al., G3, August 2017 (PMID: 28655737).
50×10^6 KBM7^WT cells per condition were collected, washed four times with ice-cold PBS, the supernatant aspirated and pellets snap-frozen in liquid N2. Each washed cell pellet was lysed separately in 40 μL of freshly prepared lysis buffer as previously described (see Mayor-Ruiz et al., Mol Cell 2019)
Offline Fractionation via RP-HPLC at high pH and 2D-RP/RP Liquid Chromatography Mass Spectrometry were performed as previously described (see Mayor-Ruiz et al., Mol Cell 2019).
Acquired raw data files were processed using the Proteome Discoverer 2.2.0 platform, utilizing the Sequest HT database search engine and Percolator validation software node (V3.04) to remove false positives with a false discovery rate (FDR) of 1% on peptide and protein level under strict conditions. Searches were performed with full tryptic digestion against the human SwissProt database v2017.06 with up to two allowed miscleavage sites. Oxidation (+15.9949 Da) of methionine was set as variable modification, whilst carbamidomethylation (+57.0214 Da) of cysteine residues and TMT 6-plex labelling of peptide N-termini and lysine residues were set as fixed modifications. Data was searched with mass tolerances of ±10 ppm and ±0.02 Da on the precursor and fragment ions, respectively. Results were filtered to include peptide spectrum matches (PSMs) with Sequest HT cross-correlation factor (Xcorr) scores of […] and high peptide confidence assigned by Percolator. MS^2 signal-to-noise values (S/N) values of TMT reporter ions were used to estimate peptide/protein abundance changes. PSMs with precursor isolation interference values of ≥ 50% and average TMT-reporter ion S/N≤10 were excluded from quantitation. Only unique peptides were used for TMT quantitation as well as for TOP3 label-free quantitation. Isotopic impurity correction and TMT channel-normalization based on total peptide amount were applied. For statistical analysis and p-value calculation, the integrated ANOVA hypothesis test was used. TMT ratios with p-values below 0.01 were considered as significant. Only proteins with >1 peptide detected and >1 unique peptide detected were considered for further analysis. For the calling of destabilized proteins, a log 2 fold change threshold (drug/DMSO) of −0.3 was applied.
Comparison of overall proteome-wide changes in KBM7 cells treated with IC020772.1 (2.5 μM), IC021313.2 (7 μM) or T6938051 (3.5 μM) for 5 h and 12h, using quantitative proteomics based on isobaric tagging.
The protein names in Table 4, Table 5 and Table 6 refer to the protein names as provided by HUGO Gene Nomenclature Committee (HGNC) database. […]

O=C(CSc1nnc2c(n1)[nH]c1ccccc12)Nc1ccc(Cl)cn1 [IC020772.1]
log2FC (IC020772.1/DMSO) (ACD (Q96AP0-1)): −0.567 | log2FC (IC020772.1/DMSO) (AEN (Q8WTP8-2)): −0.5522 | log2FC (IC020772.1/DMSO) (ANTXR2 (P58335-4)): −0.5522 | log2FC (IC020772.1/DMSO) (APEX2 (Q9UBZ4)): −1.224 | log2FC (IC020772.1/DMSO) (APOB (P04114)): −0.5002 | log2FC (IC020772.1/DMSO) (APOL2 (Q9BQE5)): −0.5585 | log2FC (IC020772.1/DMSO) (ARSK (Q6UWY0)): −0.486 | log2FC (IC020772.1/DMSO) (ASPM (Q8IZT6-1)): −0.5416 | log2FC (IC020772.1/DMSO) (BICD1 (Q96G01-1)): −0.5479 | log2FC (IC020772.1/DMSO) (BTBD10 (Q9BSF8-2)): −0.6371 | log2FC (IC020772.1/DMSO) (C8orf59 (Q8N0T1-1)): −1.442 | log2FC (IC020772.1/DMSO) (C12orf45 (Q8N5I9)): −0.5479 | log2FC (IC020772.1/DMSO) (CCDC32 (Q9BV29-2)): −1.221 | log2FC (IC020772.1/DMSO) (CCDC61 (Q9Y6R9-1)): −0.567 | log2FC (IC020772.1/DMSO) (CCNB1 (P14635-1)): −0.5416 | log2FC (IC020772.1/DMSO) (CCND3 (P30281-1)): −0.5479 | log2FC (IC020772.1/DMSO) (CDC6 (Q99741)): −1.201 | log2FC (IC020772.1/DMSO) (CDC7 (O00311-1)): −0.5585 | log2FC (IC020772.1/DMSO) (CDCA7 (Q9BWT1-1)): −1.311 | log2FC (IC020772.1/DMSO) (CEP70 (Q8NHQ1-1)): −0.4941 | log2FC (IC020772.1/DMSO) (CHEK1 (O14757-1)): −0.5522 | log2FC (IC020772.1/DMSO) (CLIP1 (P30622-2)): −0.4982 | log2FC (IC020772.1/DMSO) (CLK2 (P49760-1)): −0.5395 | log2FC (IC020772.1/DMSO) (CNTLN (Q9NXG0-2)): −0.5585 | log2FC (IC020772.1/DMSO) (CSPP1 (Q1MSJ5-3)): −0.4961 | log2FC (IC020772.1/DMSO) (CTNNAL1 (Q9UBT7-1)): −0.5564 | log2FC (IC020772.1/DMSO) (Cllorf98 (E9PRG8)): −0.6304 | log2FC (IC020772.1/DMSO) (DDX28 (Q9NUL7)): −0.5437 | log2FC (IC020772.1/DMSO) (DHFR (P00374-1)): −0.4961 | log2FC (IC020772.1/DMSO) (DNAJB12 (Q9NXW2-1)): −0.5458 | log2FC (IC020772.1/DMSO) (DNAJB14 (Q8TBM8-1)): −0.5374 | log2FC (IC020772.1/DMSO) (DPH3 (Q96FX2-1)): −0.5564 | log2FC (IC020772.1/DMSO) (DSG2 (Q14126)): −0.5692 | log2FC (IC020772.1/DMSO) (E2F4 (Q16254)): −0.486 | log2FC (IC020772.1/DMSO) (ERICH5 (Q6P6B1-1)): −0.6371 | log2FC (IC020772.1/DMSO) (EVI2B (P34910-2)): −0.6282 | log2FC (IC020772.1/DMSO) (FAM177A1 (Q8N128-2)): −0.486 | log2FC (IC020772.1/DMSO) (FNDC3B (Q53EP0-1)): −0.6371 | log2FC (IC020772.1/DMSO) (FYTTD1 (Q96QD9-1)): −1.279 | log2FC (IC020772.1/DMSO) (GAB1 (Q13480-2)): −0.5564 | log2FC (IC020772.1/DMSO) (GOSR1 (O95249-1)): −0.4961 | log2FC (IC020772.1/DMSO) (GPT2 (Q8TD30-1)): −0.5564 | log2FC (IC020772.1/DMSO) (GTSE1 (Q9NYZ3)): −0.4941 | log2FC (IC020772.1/DMSO) (HAUS1 (Q96CS2-1)): −0.5043 | log2FC (IC020772.1/DMSO) (HLTF (Q14527-1)): −0.5543 | log2FC (IC020772.1/DMSO) (IL27RA (Q6UWB1)): −0.5458 | log2FC (IC020772.1/DMSO) (JADE2 (Q9NQC1-1)): −0.5395 | log2FC (IC020772.1/DMSO) (JMJD6 (Q6NYC1-3)): −0.5522 | log2FC (IC020772.1/DMSO) (JUP (P14923)): −0.484 | number of proteins significantly downregulated (log2FC < -0.3), destabilized proteins (KBM7 cells, 12 hours, ~10xEC50, 7,903 proteins quantified): 869 | number of downregulated proteins known to be implicated in KBM7 proliferation (essential for KBM7 viability) (KBM7 cells, 12 hours, essentiality from Hart et al. 2017): 147 | log2FC (IC020772.1/DMSO) (KBTBD7 (Q8WVZ9)): −0.5353 | log2FC (IC020772.1/DMSO) (LIMD2 (Q9BT23)): −0.6282 | log2FC (IC020772.1/DMSO) (MTR (Q99707-1)): −0.5395 | log2FC (IC020772.1/DMSO) (NARF (Q9UHQ1-2)): −0.488 | log2FC (IC020772.1/DMSO) (NCR3LG1 (Q68D85)): −0.488 | log2FC (IC020772.1/DMSO) (NDC80 (O14777)): −0.5585 | log2FC (IC020772.1/DMSO) (NKAPD1 (Q6ZUT1-2)): −0.488 | log2FC (IC020772.1/DMSO) (NKIRAS1 (Q9NYS0)): −0.5374 | log2FC (IC020772.1/DMSO) (NLK (Q9UBE8)): −0.4982 | log2FC (IC020772.1/DMSO) (NPAT (Q14207)): −0.6439 | log2FC (IC020772.1/DMSO) (NUF2 (Q9BZD4)): −0.6282 | log2FC (IC020772.1/DMSO) (NXF3 (Q9H4D5-1)): −0.5628 | log2FC (IC020772.1/DMSO) (PCLAF (Q15004-1)): −1.248 | log2FC (IC020772.1/DMSO) (PDCD2 (Q16342-1)): −0.5585 | log2FC (IC020772.1/DMSO) (PEX19 (P40855-1)): −0.488 | log2FC (IC020772.1/DMSO) (PHF8 (Q9UPP1-4)): −0.4961 | log2FC (IC020772.1/DMSO) (PIAS4 (Q8N2W9)): −0.4901 | log2FC (IC020772.1/DMSO) (PIBF1 (Q8WXW3-1)): −0.5002 | log2FC (IC020772.1/DMSO) (PIP5K1A (Q99755-3)): −0.5479 | log2FC (IC020772.1/DMSO) (PRR14L (Q5THK1-1)): −0.5458 | log2FC (IC020772.1/DMSO) (PUM2 (Q8TB72-1)): −0.5585 | log2FC (IC020772.1/DMSO) (RELT (Q969Z4)): −0.4901 | log2FC (IC020772.1/DMSO) (RIOK2 (Q9BVS4-1)): −0.6394 | log2FC (IC020772.1/DMSO) (RLIM (Q9NVW2-1)): −0.5458 | log2FC (IC020772.1/DMSO) (RNF149 (Q8NC42)): −0.55 | log2FC (IC020772.1/DMSO) (RNF219 (Q5W0B1)): −0.6506 | log2FC (IC020772.1/DMSO) (RTEL1 (Q9NZ71-2)): −0.5395 | log2FC (IC020772.1/DMSO) (SCAND1 (P57086)): −1.377 | log2FC (IC020772.1/DMSO) (SCARF1 (Q14162-1)): −1.297 | log2FC (IC020772.1/DMSO) (SDHAF3 (Q9NRP4)): −0.6349 | log2FC (IC020772.1/DMSO) (SIK2 (Q9H0K1)): −0.4961 | log2FC (IC020772.1/DMSO) (SLC19A1 (P41440-1)): −0.6326 | log2FC (IC020772.1/DMSO) (SLCO4A1 (Q96BD0-1)): −0.5043 | log2FC (IC020772.1/DMSO) (SNAP29 (O95721)): −0.6282 | log2FC (IC020772.1/DMSO) (SPHK2 (Q9NRA0-5)): −0.6439 | log2FC (IC020772.1/DMSO) (STXBP4 (Q6ZWJ1-1)): −0.5043 | log2FC (IC020772.1/DMSO) (TFAP4 (Q01664)): −0.5585 | log2FC (IC020772.1/DMSO) (TMED1 (Q13445)): −0.5395 | log2FC (IC020772.1/DMSO) (TMEM126B (Q8IUX1-1)): −0.4961 | log2FC (IC020772.1/DMSO) (TPK1 (Q9H3S4-1)): −0.5543 | log2FC (IC020772.1/DMSO) (TPT1 (P13693-1)): −0.4982 | log2FC (IC020772.1/DMSO) (TRMT44 (Q8IYL2-1)): −0.5416 | log2FC (IC020772.1/DMSO) (TRUB2 (O95900-1)): −0.6371 | log2FC (IC020772.1/DMSO) (TTC21B (Q7Z4L5-1)): −0.4901 | log2FC (IC020772.1/DMSO) (UBE2A (P49459-1)): −0.4921 | log2FC (IC020772.1/DMSO) (UBE2J2 (Q8N2K1-3)): −0.55 | log2FC (IC020772.1/DMSO) (UBL5 (Q9BZL1)): −0.5522 | log2FC (IC020772.1/DMSO) (UBXN2B (Q14CS0)): −0.5374 | log2FC (IC020772.1/DMSO) (USP38 (Q8NB14-1)): −0.4941 | log2FC (IC020772.1/DMSO) (ZFAND3 (Q9H8U3)): −0.5543 | log2FC (IC020772.1/DMSO) (ZNF182 (P17025-1)): −0.6529
